Assays:
Experiment in all cases: cells
IST-SL1 = assay type: functional, cell-based, Homo sapiens; settings: Homo sapiens, IST-SL1;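 further: growth inhibition of human IST-SL1 cells, read out with a cell viability assay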
Description: SANGER: Inhibition of human IST-SL1 cell growth in a cell viability assay.

IGR-1 = assay type: functional, cell-based, Homo sapiens; settings: Homo sapiens, IGR-1;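 further: growth inhibition of human IGR-1 cells, read out with a cell viability assay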
Description: SANGER: Inhibition of human IGR-1 cell growth in a cell viability assay.

NCI-H596 = assay type: functional, cell-based, Homo sapiens; settings: Homo sapiens, NCI-H596;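 further: growth inhibition of NCI-H596 cells, read out with a cell viability assay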
Description: SANGER: Inhibition of human NCI-H596 cell growth in a cell viability assay.

HAL-01 = assay type: functional, cell-based; settings: Homo sapiens;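 further: growth inhibition of human HAL-01 cells, read out with a cell viability assay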
Description: SANGER: Inhibition of human HAL-01 cell growth in a cell viability assay.

HGC-27 = assay type: functional, cell-based, Homo sapiens; settings: Homo sapiens, HGC-27;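 further: growth inhibition of human HGC-27 cells, read out in a cell viability assay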
Description: SANGER: Inhibition of human HGC-27 cell growth in a cell viability assay.

DK-MG = assay type: functional, cell-based, Homo sapiens; settings: Homo sapiens, DK-MG;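 further: growth inhibition of DK-MG cells, read out with a cell viability assay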
Description: SANGER: Inhibition of human DK-MG cell growth in a cell viability assay.

KARPAS-45 = assay type: functional, cell-based; settings: Homo sapiens;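 further: inhibition of cell line growth, read out through a viability assay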
Description: SANGER: Inhibition of human KARPAS-45 cell growth in a cell viability assay.

OVCAR-3 = assay type: functional, cell-based, Homo sapiens; settings: Homo sapiens, OVCAR-3;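 further: growth inhibition of human OVCAR-3 cells, determined by a cell viability assay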
Description: SANGER: Inhibition of human OVCAR-3 cell growth in a cell viability assay.

NY = assay type: functional, cell-based, Homo sapiens; settings: Homo sapiens, NY
Description: SANGER: Inhibition of human NY cell growth in a cell viability assay.

VMRC-RCZ = assay type: functional, cell-based; settings: Homo sapiens;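 further: growth inhibition measured with a cell viability assay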
Description: SANGER: Inhibition of human VMRC-RCZ cell growth in a cell viability assay.

SNB-75 = assay type: functional, cell-based, Homo sapiens; settings: Homo sapiens, SNB-75;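 further: cell viability assay measuring growth inhibition of human SNB-75 cells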
Description: SANGER: Inhibition of human SNB75 cell growth in a cell viability assay.

K562 = assay type: functional, cell-based; settings: Homo sapiens
Description: SANGER: Inhibition of human K-562 cell growth in a cell viability assay.

D-336MG = assay type: functional, cell-based, Homo sapiens; settings: Homo sapiens, D-336MG
Description: SANGER: Inhibition of human D-336MG cell growth in a cell viability assay.

KP-4 = assay type: functional, cell-based, Homo sapiens; settings: Homo sapiens, KP-4; read-out: IC50;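 further: human KP-4 cells, with growth inhibition read out through a cell viability assay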
Description: SANGER: Inhibition of human KP-4 cell growth in a cell viability assay.

RPMI-8866 = assay type: functional, cell-based; settings: Homo sapiens
Description: SANGER: Inhibition of human RPMI-8866 cell growth in a cell viability assay.

OE33 = assay type: functional, cell-based, Homo sapiens; settings: Homo sapiens, OE33;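 further: growth inhibition of human OE33 cells, measured by a cell viability assay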
Description: SANGER: Inhibition of human OE33 cell growth in a cell viability assay.

A704 = assay type: functional, cell-based, Homo sapiens; settings: Homo sapiens, A704;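 further: growth inhibition of human A704 cells, read out with a cell viability assay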
Description: SANGER: Inhibition of human A704 cell growth in a cell viability assay.

NTERA-2-cl-D1 = assay type: functional, cell-based, Homo sapiens; settings: Homo sapiens, NTERA-2-cl-D1;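 further: inhibition of cell growth, measured with a cell viability assay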
Description: SANGER: Inhibition of human NTERA-S-cl-D1 cell growth in a cell viability assay.

UO-31 = assay type: functional, cell-based; settings: Homo sapiens;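 further: cell viability assay measuring inhibition of cell growth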
Description: SANGER: Inhibition of human U031 cell growth in a cell viability assay.

HCC1569 = assay type: functional, cell-based, Homo sapiens; settings: Homo sapiens, HCC1569;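 further: growth inhibition of human HCC1569 cells, read out with a cell viability assay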
Description: SANGER: Inhibition of human HCC1569 cell growth in a cell viability assay.

MS-1 = assay type: functional, cell-based; settings: Homo sapiens;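 further: growth inhibition of MS-1 cells, read out by cell viability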
Description: SANGER: Inhibition of human MS-1 cell growth in a cell viability assay.

MHH-PREB-1 = assay type: functional, cell-based; settings: Homo sapiens;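 further: cell viability assay measuring inhibition of proliferation of human MHH-PREB-1 cells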
Description: SANGER: Inhibition of human MHH-PREB-1 cell growth in a cell viability assay.

LoVo = assay type: functional, cell-based; settings: Homo sapiens;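 further: growth inhibition of human LoVo cells, read out with a cell viability assay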
Description: SANGER: Inhibition of human LoVo cell growth in a cell viability assay.

SNU-5 = assay type: functional, cell-based; settings: Homo sapiens;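 further: cell viability readout used to measure growth inhibition in human NCI-SNU-5 cells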
Description: SANGER: Inhibition of human NCI-SNU-5 cell growth in a cell viability assay.

CAS-1 = assay type: functional, cell-based, Homo sapiens; settings: Homo sapiens, CAS-1;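 further: growth inhibition of CAS-1 cells, measured with a cell viability assay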
Description: SANGER: Inhibition of human CAS-1 cell growth in a cell viability assay.

COLO-678 = assay type: functional, cell-based, Homo sapiens; settings: Homo sapiens, COLO-678
Description: SANGER: Inhibition of human COLO-678 cell growth in a cell viability assay.

NCI-H1648 = assay type: functional, cell-based, Homo sapiens; settings: Homo sapiens, NCI-H1648;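 further: cell viability assay measuring inhibition of NCI-H1648 cell growth, from the Sanger screening data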
Description: SANGER: Inhibition of human NCI-H1648 cell growth in a cell viability assay.

HCT-116 = assay type: functional, cell-based, Homo sapiens; settings: Homo sapiens, HCT-116
Description: SANGER: Inhibition of human HCT-116 cell growth in a cell viability assay.

CAL-39 = assay type: functional, cell-based, Homo sapiens; settings: Homo sapiens, CAL-39;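 further: cell viability assay measuring growth inhibition of CAL-39 cells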
Description: SANGER: Inhibition of human CAL-39 cell growth in a cell viability assay.

NCI-H2228 = assay type: functional, cell-based, Homo sapiens; settings: Homo sapiens, NCI-H2228;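 further: growth inhibition of human NCI-H2228 cells, read out by a cell viability assay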
Description: SANGER: Inhibition of human NCI-H2228 cell growth in a cell viability assay.

BEN = assay type: functional, cell-based, Homo sapiens; settings: Homo sapiens, BEN;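 further: growth inhibition of the BEN cell line, read out with a cell viability assay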
Description: SANGER: Inhibition of human BEN cell growth in a cell viability assay.

ALL-PO = assay type: functional, cell-based; settings: Homo sapiens;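 further: growth inhibition of ALL-PO cells, read out by a cell viability assay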
Description: SANGER: Inhibition of human ALL-PO cell growth in a cell viability assay.

U-266 = assay type: functional, cell-based; settings: Homo sapiens
Description: SANGER: Inhibition of human U-266 cell growth in a cell viability assay.

LU-134-A = assay type: functional, cell-based; settings: Homo sapiens
Description: SANGER: Inhibition of human LU-134-A cell growth in a cell viability assay.

COLO-800 = assay type: functional, cell-based, Homo sapiens; settings: Homo sapiens, COLO-800;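 further: growth inhibition of COLO-800 cells, read out with a cell viability assay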
Description: SANGER: Inhibition of human COLO-800 cell growth in a cell viability assay.

SN12C = assay type: functional, cell-based, Homo sapiens; settings: Homo sapiens, SN12C;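 further: growth inhibition of human SN12C cells, measured by a cell viability assay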
Description: SANGER: Inhibition of human SN12C cell growth in a cell viability assay.

LB771-HNC = assay type: functional, cell-based, Homo sapiens; settings: Homo sapiens, LB771-HNC;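 further: growth inhibition of LB771-HNC human cells, read out with a cell viability assay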
Description: SANGER: Inhibition of human LB771-HNC cell growth in a cell viability assay.

TK-10 = assay type: functional, cell-based, Homo sapiens; settings: Homo sapiens, TK-10;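 further: growth inhibition of TK-10 cells, read out in a cell viability assay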
Description: SANGER: Inhibition of human TK10 cell growth in a cell viability assay.

NCI-H810 = assay type: functional, cell-based, Homo sapiens; settings: Homo sapiens, NCI-H810;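 further: IC50 reflects inhibition of cancer cell line growth, read out with a cell viability assay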
Description: SANGER: Inhibition of human NCI-H810 cell growth in a cell viability assay.

SCC-9 = assay type: functional, cell-based, Homo sapiens; settings: Homo sapiens, SCC-9;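 further: Read-out is a cell viability assay, with values giving inhibition of cell growth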
Description: SANGER: Inhibition of human SCC-9 cell growth in a cell viability assay.

IGROV-1 = assay type: functional, cell-based, Homo sapiens; settings: Homo sapiens, IGROV-1;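 further: reduction of IGROV-1 cell growth, read out with a viability assay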
Description: SANGER: Inhibition of human IGROV-1 cell growth in a cell viability assay.

NCI-H1770 = assay type: functional, cell-based; settings: Homo sapiens;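 further: growth inhibition of NCI-H1770 cells determined with a viability readout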
Description: SANGER: Inhibition of human NCI-H1770 cell growth in a cell viability assay.

AGS = assay type: functional, cell-based, Homo sapiens; settings: Homo sapiens, AGS;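 further: growth inhibition of AGS cells, determined with a cell viability assay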
Description: SANGER: Inhibition of human AGS cell growth in a cell viability assay.

SK-NEP-1 = assay type: functional, cell-based; settings: Homo sapiens;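 further: growth inhibition of human SK-NEP-1 cells, read out by a cell viability assay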
Description: SANGER: Inhibition of human SK-NEP-1 cell growth in a cell viability assay.

LOX IMVI = assay type: functional, cell-based; settings: Homo sapiens
Description: SANGER: Inhibition of human LOXIMVI cell growth in a cell viability assay.

EFO-27 = assay type: functional, cell-based, Homo sapiens; settings: Homo sapiens, EFO-27;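 further: growth inhibition of EFO-27 cells, read out with a cell viability assay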
Description: SANGER: Inhibition of human EFO-27 cell growth in a cell viability assay.

GOTO = assay type: functional, cell-based, Homo sapiens; settings: Homo sapiens, GOTO;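 further: growth inhibition of GOTO cells, read out by a cell viability assay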
Description: SANGER: Inhibition of human GOTO cell growth in a cell viability assay.

CAL-120 = assay type: functional, cell-based, Homo sapiens; settings: Homo sapiens, CAL-120;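 further: cell growth inhibition, read out as cell viability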
Description: SANGER: Inhibition of human CAL-120 cell growth in a cell viability assay.

NCI-H520 = assay type: functional, cell-based, Homo sapiens; settings: Homo sapiens, NCI-H520;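 further: growth inhibition of NCI-H520 cells, measured by a cell viability assay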
Description: SANGER: Inhibition of human NCI-H520 cell growth in a cell viability assay.

KLE = assay type: functional, cell-based, Homo sapiens; settings: Homo sapiens, KLE;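 further: growth inhibition of human KLE cells, read out with a cell viability assay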
Description: SANGER: Inhibition of human KLE cell growth in a cell viability assay.

MCF7 = assay type: functional, cell-based, Homo sapiens; settings: Homo sapiens, MCF7;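 further: growth inhibition of human MCF7 cells, read out with a cell viability assay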
Description: SANGER: Inhibition of human MCF7 cell growth in a cell viability assay.

RO82-W-1 = assay type: functional, cell-based, Homo sapiens; settings: Homo sapiens, RO82-W-1;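 further: growth inhibition of human RO82-W-1 cells, measured with a cell viability assay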
Description: SANGER: Inhibition of human RO82-W-1 cell growth in a cell viability assay.

MN-60 = assay type: functional, cell-based; settings: Homo sapiens;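 further: growth inhibition of the MN-60 cell line, determined with a cell viability assay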
Description: SANGER: Inhibition of human MN-60 cell growth in a cell viability assay.

SMILES: C=CCNC1=C2C[C@@H](C)C[C@H](OC)[C@H](O)[C@@H](C)/C=C(\C)[C@H](OC(N)=O)[C@@H](OC)/C=C\C=C(/C)C(=O)NC(=CC1=O)C2=O [TANESPIMYCIN]
- IC50 (IST-SL1): > 1000 nM
- IC50 (IGR-1): 790 nM
- IC50 (NCI-H596): > 1000 nM
- IC50 (HAL-01): > 1000 nM
- IC50 (HGC-27): 5.1 nM
- IC50 (DK-MG): 372 nM
- IC50 (KARPAS-45): 379 nM
- IC50 (OVCAR-3): 593 nM
- IC50 (NY): > 1000 nM
- IC50 (VMRC-RCZ): 138 nM
- IC50 (SNB-75): 122 nM
- IC50 (K562): > 1000 nM
- IC50 (D-336MG): 33.1 nM
- IC50 (KP-4): 47.5 nM
- IC50 (RPMI-8866): > 1000 nM
- IC50 (OE33): 851 nM
- IC50 (A704): > 1000 nM
- IC50 (NTERA-2-cl-D1): 328 nM
- IC50 (UO-31): 205 nM
- IC50 (HCC1569): > 1000 nM
- IC50 (MS-1): > 1000 nM
- IC50 (MHH-PREB-1): > 1000 nM
- IC50 (LoVo): > 1000 nM
- IC50 (SNU-5): 305 nM
- IC50 (CAS-1): > 1000 nM
- IC50 (COLO-678): 240 nM
- IC50 (NCI-H1648): 152 nM
- IC50 (HCT-116): 266 nM
- IC50 (CAL-39): 77.7 nM
- IC50 (NCI-H2228): 354 nM
- IC50 (BEN): > 1000 nM
- IC50 (ALL-PO): > 1000 nM
- IC50 (U-266): > 1000 nM
- IC50 (LU-134-A): 261 nM
- IC50 (COLO-800): 258 nM
- IC50 (SN12C): 101 nM
- IC50 (LB771-HNC): > 1000 nM
- IC50 (TK-10): 231 nM
- IC50 (NCI-H810): > 1000 nM
- IC50 (SCC-9): 167 nM
- IC50 (IGROV-1): 184 nM
- IC50 (NCI-H1770): > 1000 nM
- IC50 (AGS): 19.4 nM
- IC50 (SK-NEP-1): > 1000 nM
- IC50 (LOX IMVI): 58.7 nM
- IC50 (EFO-27): 100 nM
- IC50 (GOTO): 452 nM
- IC50 (CAL-120): 534 nM
- IC50 (NCI-H520): 387 nM
- IC50 (KLE): > 1000 nM
- IC50 (MCF7): 96.8 nM
- IC50 (RO82-W-1): 397 nM
- IC50 (MN-60): > 1000 nM

SMILES: CCC1=C[C@@H]2CN(C1)Cc1c([nH]c3ccccc13)[C@@](C(=O)OC)(c1cc3c(cc1OC)N(C)[C@H]1[C@@](O)(C(=O)OC)[C@H](OC(C)=O)[C@]4(CC)C=CCN5CC[C@]31[C@@H]54)C2 [VINORELBINE]
- IC50 (IST-SL1): 39.3 nM
- IC50 (IGR-1): 1.9 nM
- IC50 (NCI-H596): > 64 nM
- IC50 (HAL-01): > 64 nM
- IC50 (HGC-27): 1.85 nM
- IC50 (DK-MG): > 64 nM
- IC50 (KARPAS-45): 5.74 nM
- IC50 (OVCAR-3): 6.21 nM
- IC50 (NY): 8.12 nM
- IC50 (VMRC-RCZ): 18.8 nM
- IC50 (SNB-75): 12.5 nM
- IC50 (K562): > 64 nM
- IC50 (D-336MG): 63.9 nM
- IC50 (KP-4): 2.71 nM
- IC50 (RPMI-8866): 7 nM
- IC50 (OE33): 20.4 nM
- IC50 (A704): > 64 nM
- IC50 (NTERA-2-cl-D1): 0.939 nM
- IC50 (UO-31): > 64 nM
- IC50 (HCC1569): 4.93 nM
- IC50 (MS-1): > 64 nM
- IC50 (MHH-PREB-1): 6.88 nM
- IC50 (LoVo): 7.9 nM
- IC50 (SNU-5): 45.8 nM
- IC50 (CAS-1): 40.1 nM
- IC50 (COLO-678): > 64 nM
- IC50 (NCI-H1648): 3.92 nM
- IC50 (HCT-116): 3.37 nM
- IC50 (CAL-39): 4.26 nM
- IC50 (NCI-H2228): 12.9 nM
- IC50 (BEN): 58.1 nM
- IC50 (ALL-PO): 3.36 nM
- IC50 (U-266): 17.5 nM
- IC50 (LU-134-A): 47.2 nM
- IC50 (COLO-800): 17 nM
- IC50 (SN12C): 33.1 nM
- IC50 (LB771-HNC): 8.59 nM
- IC50 (TK-10): > 64 nM
- IC50 (NCI-H810): 3.91 nM
- IC50 (SCC-9): 2.05 nM
- IC50 (IGROV-1): 2.2 nM
- IC50 (NCI-H1770): 5.53 nM
- IC50 (AGS): 6.46 nM
- IC50 (SK-NEP-1): 8.99 nM
- IC50 (LOX IMVI): > 64 nM
- IC50 (EFO-27): 5.79 nM
- IC50 (GOTO): > 64 nM
- IC50 (CAL-120): 43.6 nM
- IC50 (NCI-H520): 1.87 nM
- IC50 (KLE): > 64 nM
- IC50 (MCF7): 5.01 nM
- IC50 (RO82-W-1): > 64 nM
- IC50 (MN-60): > 64 nM

Reference: ChEMBL document CHEMBL1201861, “Genomics of Drug Sensitity in Cancer screening data, Wellcome Trust Sanger Institute”
